Here are results for four compounds from ChEMBL document CHEMBL1201862, “PubChem BioAssay data set” (2004).

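48-hour exposure; five concentrations; linearly interpolated endpoints. GI50 = concentration required for 50% inhibition of growth.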 Calls of active or inactive are those of the source. Rule as the data show it: active = GI50 up to about 1.1 µM and inactive = higher. Some results are limits rather than exact numbers.

Assay in all cases: NCI-60 cell line screen, 48 h
Assay [1] deals with A498.
The subject of assay [2] is A549.
Assay [3] deals with CAKI-1.
The subject of assay [4] is HCT-116.
Assay [5] deals with HL-60.
For assay [6], the system named is K562.
The test system of assay [7] is KM12.
For assay [8], the system named is MDA-MB-435.
For assay [9], the system named is Malme-3M.
For assay [10], the system named is NCI-H23.
Assay [11] deals with NCI-H460.
The test system of assay [12] is NCI/ADR-RES.
Assay [13] deals with OVCAR-4.
In assay [14] the test system is OVCAR-8.
For assay [15], the system named is PC-3.
Assay [16] concerns SF-539.
The test system of assay [17] is SNB-19.
The subject of assay [18] is SR.
For assay [19], the system named is TK-10.
For assay [20], the system named is U-251.

`CC(/C=C/c1ccc([N+](=O)[O-])o1)=N/N1CC(CN2CCOCC2)OC1=O` (stereo not given): the GI50 is 32.6 µM (inactive) in assay [1]; 26.8 µM (inactive) in assay [2]; 19.4 µM (inactive) in assay [3]; 11.4 µM (inactive) in assay [4]; 25.3 µM (inactive) in [5]; 16.9 µM (inactive) in assay [6]. Moreover, the GI50 in [7] is 42.8 µM (inactive); in assay [8], 18.7 µM (inactive); in assay [9] it was 14.7 µM (inactive); in assay [10] it was 20.7 µM (inactive); in assay [11], 21.5 µM (inactive); in assay [12], 30.2 µM (inactive). The GI50 in assay [13] was 14 µM (inactive); in assay [14] it was 16.5 µM (inactive); in [15] it was 14 µM (inactive); in [16], 22.9 µM (inactive); in assay [17], 48.1 µM (inactive); in [18] it was 15.6 µM (inactive). Also, the GI50 in assay [19] is 45.1 µM (inactive); in assay [20], 28.5 µM (inactive).
As to `CC[C@@]1(O)C(=O)OCc2c1cc1n(c2=O)Cc2c-1nc1ccccc1c2/C=N\NC(=O)C(N)CC(C)C` (stereo not given in full), the GI50 in assay [1] was 0.0314 µM (active); in assay [2] it was 0.016 µM (active); in assay [3], < 0.01 µM (active); in assay [4] it was 0.0161 µM (active); in assay [5] it was < 0.01 µM (active); in assay [6], 0.0267 µM (active). The GI50 in assay [7] was 0.152 µM (active); in assay [8] it was 0.143 µM (active); in assay [9], 0.107 µM (active); in [10], < 0.01 µM (active); in [11], < 0.01 µM (active); in [12] it was 0.0215 µM (active). The GI50 in assay [13] is 0.44 µM (active); in assay [14], < 0.0132 µM (active); in assay [15], < 0.0188 µM (active); in assay [16], < 0.01 µM (active); in assay [17] it was < 0.01 µM (active); in [18] it was < 0.01 µM (active). Besides, the GI50 in [19] is 3.12 µM (inactive); in assay [20] it was < 0.01 µM (active).
As for `Cc1ccc(C(=N)Nc2ccccc2)cc1`, the GI50 in assay [1], in assay [2], in assay [3], in assay [4], in assay [5] and in assay [6] was > 100 µM (inactive) each time. The GI50 in assay [7], in assay [8], in [9], in assay [10], in assay [11] and in assay [12] was > 100 µM (inactive) each time. Further, the GI50 in assay [13], in assay [14], in assay [15], in assay [16], in assay [17] and in [18] was > 100 µM (inactive) in each case. The GI50 in assay [19] and in assay [20] was > 100 µM (inactive) throughout.
Consider `O=[N+]([O-])c1cccc2nccc(NCCN3CCOCC3)c12`, for which the GI50 in [1] is 13.2 µM (inactive); in [2] it was 18.2 µM (inactive); in assay [3], 2.6 µM (inactive); in [4] it was 13.4 µM (inactive); in [5] it was 10.6 µM (inactive); in assay [6] it was 11.8 µM (inactive). The GI50 in [7] was 10.5 µM (inactive); in assay [8], 22.9 µM (inactive); in assay [9], 13.8 µM (inactive); in assay [10], 11.7 µM (inactive); in assay [11] it was 6.87 µM (inactive); in assay [12], 29.4 µM (inactive). Moreover, the GI50 in assay [13] is 8.99 µM (inactive); in assay [14], 20.1 µM (inactive); in assay [15], 9.64 µM (inactive); in [16], 20.3 µM (inactive); in assay [17], 25.7 µM (inactive); in assay [18], 10.1 µM (inactive). Also, the GI50 in assay [19] was 23.7 µM (inactive); in assay [20], 22.2 µM (inactive).
